Common to all, as to assay type: cell-based
The test system of assay [1] is Saos-2 (HPV−) cells. As to the kind of experiment: Cell proliferation/viability assay, Saos-2 cells. The note with it: Homo sapiens, SAOS-2, 96 h, read-out: Saos-2 (HPV−) Proliferation IC50 (μM). How it is done: (§1) Caski (catalog number CRL-1550), SiHa (catalog number HTB-35), C33A (catalog number HTB-31), Saos-2 (ATCC HTB-85), and Hela (catalog number CCL-2) cells were obtained from the American Type Culture Collection (ATCC). The human cervical carcinoma cell lines Caski. SiHa, Hela and C33A, and the human osteosarcoma cell line Saos-2, and the human keratinocyte cell line HaCaT were cultured in Dulbecco's Modified Eagle Medium (DMEM, Invitrogen catalog number 11965-092) supplemented with 10% fetal bovine serum. The colorectal carcinoma cell line HCT-116 was cultured in Roswell Park Memorial Institute-1640 Medium (Invitrogen catalog number 11875-093) supplemented with 10% FBS. All cells were incubated at 37° C. in a humidified atmosphere with 5% CO2 in air. To establish the SCHPV-18 cell line, one million primary neonatal human foreskin keratinocytes (Invitrogen, catalog no. C-001-5C), cultured in KBM Gold-keratinocvte cell basal medium (Lonza, catalog no. 192060), were electroporated with 5 μg HPV-18 plasmid DNA (ATCC catalog no. 45152D) using the Amaxa Nucleofector II on setting T-007. Cells were co-transfected with 2 μg plasmid pZSGreen1-N1 (Clontech catalog no. 632448) encoding G418 resistance, and cells were selected for four days in 100 μg/ml G418, after which selection was removed. Cells were maintained in culture six months prior to compound testing. Integration of the HPV 18 genome was confirmed by Southern blot. Control cells transfected in parallel with pZSGreen1-N1 alone became senescent four days after selection and the culture could not be expanded. SCHPV-18 cells were maintained in E medium (Fehrmann F, Laimins L A. Human papillomavirus type 31 life cycle: methods for study using tissue culture models. Methods Mol Biol 2005; 292:317-330).
(§2) For proliferation assays, cells were plated in white polystyrene 96-well plates (Costar catalog number 3917) for CellTiter Glo viability assays or 96-well special optics plates (Costar cat #3614) for CellTiter Blue viability assays. Cells were plated in the appropriate growth medium without antibiotics. Two hours after cell plating, a 200× compound stock diluted in DMSO was added to a final concentration of 0.5%. Plates were incubated at 37° C., for 4 days and then cell viability was assessed using either CellTiter Blue (Promega catalog number G8081) or CellTiter Glo (Promega catalog number G7572) according to the manufacturer's instructions. For the CellTiter Blue viability assay, data was collected using the SpectraMax Gemini EM (Molecular Devices) with an excitation wavelength of 530 nm and emission wavelength of 590 nm. For the CellTiter Glo viability assay, data was collected using the Envision Mulitlabel Reader (Perkin Elmer catalog number 2104-0010). To calculate IC50 and EC50 values, percent inhibition curves were fit using a four-parameter logistic formula [y=A+[…]], where A and B denote minimal and maximal % inhibition, respectively, C is the IC50 value, D is the Hill slope, and x represents compound concentration.
(§3) Table C, below, sets out the results obtained employing various compounds of the invention tested for their effects on proliferation of such cells. Caski or SiHa cells, transformed by HPV 16, Hela cells, transformed by HPV 18, or HPV-negative control cell lines (Saos-2 or C33a) were treated with various compounds. […] Unlike the HPV-negative Saos-2 or C33a cell lines, the HPV-transformed cell lines rely on the presence of HPV for their continued proliferation. Therefore, a comparison of IC50 values from HPV-transformed cell lines with IC50 values obtained from HPV-negative cell lines can be used to test for compound selectivity.

In assay [2] the test system is Caski (HPV16+) cells. The assay can be described thus: Cell proliferation/viability assay, Caski cells. The note with it: Homo sapiens, Ca-Ski, 96 h, 4 days. As for the experimental part:
as §1, §2, §3

For assay [3], the target named is T1, PAR4 (Homo sapiens, UniProt Q96RI0).
T1 construct: expressed in transfected cells; host or cells: HEK293 PAR4 Clone 1.2A
T1 sequence (Q96RI0 18-385): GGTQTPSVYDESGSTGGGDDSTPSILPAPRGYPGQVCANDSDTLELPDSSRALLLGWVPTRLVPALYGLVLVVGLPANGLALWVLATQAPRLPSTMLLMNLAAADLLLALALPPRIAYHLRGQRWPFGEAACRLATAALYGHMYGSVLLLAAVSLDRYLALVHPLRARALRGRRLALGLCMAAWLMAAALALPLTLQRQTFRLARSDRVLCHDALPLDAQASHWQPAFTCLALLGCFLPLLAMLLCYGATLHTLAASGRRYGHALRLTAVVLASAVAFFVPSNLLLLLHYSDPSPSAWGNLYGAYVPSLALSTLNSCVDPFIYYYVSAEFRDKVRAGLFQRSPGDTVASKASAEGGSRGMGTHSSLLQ
The assay can be described thus: PAR4 FLIPR assay (calcium mobilization, antagonist activity) in PAR4-expressing HEK293 cells. The text has this:
The FLIPR assay is an exemplary in vitro assay for measuring the activity of the PAR4 antagonists of the present invention. In this assay, intracellular calcium mobilization is induced in PAR4 expressing cells by a PAR4 agonist and calcium mobilization is monitored.
HEK293 cells stably expressing PAR4 were generated by a standard method of transfection of human PAR4 (F2R23) cDNA expression vector and selected based on PAR4 protein expression or mRNA expression. […] These cells also express endogenous PAR1 and can elicit calcium signal upon stimulation with PAR1 agonist peptide. Therefore, the same cells were also used to determine selectivity against PAR1 and agonist activity for both receptors. Cells from HEK293 PAR4 Clone 1.2A (BMS Arctic ID 383940) were propagated and used for calcium mobilization studies.
FLIPR-based calcium mobilization assay in HEK293 cells was used to measure PAR4 antagonism, agonism, and selectivity against PAR1. The activity of the PAR4 antagonists of the present invention were tested in PAR4 expressing cells by monitoring H-Ala-Phe(4-F)-[…]NH2-induced intracellular calcium mobilization. Counter screens for agonist activity and PAR1 antagonist activity were also performed. Briefly, PAR1/PAR4-expressing HEK293 cells were grown in DMEM (Life Technology, Grand Island, N.Y.) containing 10% heat-inactivated FBS, 1% Penicillin-Streptomycin, 10 μg/mL blasticidin, and 100 μg/mL Zeocin at 37° C. with 5% CO2. Cells were plated overnight prior to the experiment in a black 384-well Purecoat Amine clear bottom plate (Becton Dickinson Biosciences, San Jose, Calif.) at 10,000 cells/well in 30 μL growth medium and incubated in a humidified chamber at 37° C. with 5% CO2 overnight. Prior to compound addition, the cell medium was replaced with 40 μL of IX calcium and magnesium-containing Hank's Balanced Saline Solution (HBSS) (with 20 mM HEPES) and 1:1000 diluted fluorescent calcium indicator (Codex Biosolutions, Gaithersburg, Md.). After a 30 minute incubation period at 37° C., and a further 30 minute incubation and equilibration period at room temperature, 20 μL test compound (diluted in 1×HBSS buffer) was added at various concentrations at 0.17% dimethyl sulfoxide (DMSO) final concentration. Changes in fluorescence intensity were measured using a Functional Drug Screening System (FDSS, Hamamatsu, Japan) to determine agonist activities. The cells were then incubated for 30 minutes at room temperature followed by addition of 20 μL of agonist peptide for antagonist activity measurement. […] Compound potency was derived from 11-point concentration-response curves.

Assay [4] deals with SiHa (HPV16+) cells. The assay can be described thus: Cell proliferation/viability assay, SiHa cells. The note with it: Homo sapiens, 96 h, 4 days. As for the experimental part:
as §1, §2, §3

Assay [5] has as its system C33A (HPV−) cells. The assay can be described thus: Cell proliferation/viability assay, C33A cells. As to conditions: Homo sapiens, C-33-A, 96 h, read-out: C33A (HPV−) Proliferation IC50 (μM). How it is done:
as §1, §2, §3

Assay [6] concerns HeLa (HPV18+) cells. The assay can be described thus: Cell proliferation/viability assay, HeLa cells. The note with it: Homo sapiens, 96 h, 4 days. How it is done:
as §1, §2, §3

The structures appear in SMILES notation. Bounds are passed on as bounds.

As to `C#Cc1cc(-c2ccc(OC)cc2)c2ncc(OC(F)F)nc2c1` [Example 5, 2-(difluoromethoxy)-7-ethynyl-5-(4-methoxyphenyl)quinoxaline], the IC50 in assay [1] was determined as 53.1 µM; in assay [2] it was 3.4 µM; in assay [3], 0.25 µM; in assay [4], 4.5 µM; in assay [5] it was 42.3 µM; in assay [6] it was 3.3 µM.
As to `Cc1cc(-c2ccc(C(F)(F)F)cc2)c2ncc(OC(F)F)nc2c1` [Example 19], the IC50 in assay [1] was above 100 µM; in assay [2], 14.6 µM; in assay [3] it was 0.8 µM; in assay [4], 20.5 µM; in assay [5] it was above 100 µM; in assay [6], 29.9 µM.
On to `COc1ccc(-c2cc(Cl)cc3nc(OC(F)F)cnc23)cc1` [Example 2, 7-Chloro-2-(difluoromethoxy)-5-(4-methoxyphenyl)quinoxaline], for which the IC50 is above 100 µM in assay [1]; 10 µM in assay [2]; 2.1 µM in assay [3]; 8 µM in assay [4]; 54 µM in assay [5]; 9.3 µM in assay [6].
Take `Cc1cc(-c2ccc(Cl)c(Cl)c2)c2ncc(OC(F)F)nc2c1` [Example 24, 5-(3,4-dichlorophenyl)-2-(difluoromethoxy)-7-methylquinoxaline]: the IC50 in assay [1] was above 100 µM; in assay [2], 12.8 µM; in assay [3], 3.3 µM; in assay [4], 8.9 µM; in assay [5] it was 89.4 µM; in assay [6], 12.7 µM.
For the molecule `Cc1cc(-c2ccc(Cl)cc2Cl)c2ncc(OC(F)F)nc2c1` [Example 23, 5-(2,4-dichlorophenyl)-2-(difluoromethoxy)-7-methylquinoxaline], the IC50 is above 100 µM in assay [1]; 12.9 µM in assay [2]; 0.012 µM in assay [3]; 9.3 µM in assay [4]; 79.7 µM in assay [5]; 10.9 µM in assay [6].
Turning to `COc1ccc(-c2cc(C#N)cc3nc(OC(F)F)cnc23)cc1` [Example 1, 3-(difluoromethoxy)-8-(4-methoxyphenyl)quinoxaline-6-carbonitrile], the IC50 is 7.7 µM in assay [1]; 2.3 µM in assay [2]; 1.9 µM in assay [3]; 1.7 µM in assay [4]; 6.9 µM in assay [5]; 1.5 µM in assay [6].
`Cc1cc(-c2ccc(F)c(F)c2)c2ncc(OC(F)F)nc2c1` [Example 22, 2-(difluoromethoxy)-5-(3,4-difluorophenyl)-7-methylquinoxaline]: the IC50 in assay [1] was 70.6 µM; in assay [2] it was 15.9 µM; in assay [3], 1 µM; in assay [4] it was 12.6 µM; in assay [5] it was 94.4 µM; in assay [6], 16.9 µM.
As for `COc1ccc(-c2cc(C(F)(F)F)cc3nc(OC(F)F)cnc23)cc1` [Example 8, 2-(difluoromethoxy)-5-(4-methoxyphenyl)-7-(trifluoromethyl)quinoxaline], the IC50 in assay [1] was 58.3 µM; in assay [2], 2.5 µM; in assay [3], 1.5 µM; in assay [4] it was 4.3 µM; in assay [5], above 99.5 µM; in assay [6] it was 2.3 µM.
As to `Cc1cc(-c2cccc(OC(F)(F)F)c2)c2ncc(OC(F)F)nc2c1` [Example 26, 2-(difluoromethoxy)-7-methyl-5-(3-(trifluoromethoxy)phenyl) quinoxaline], the IC50 in assay [1] is above 100 µM; in assay [2] it was 6 µM; in assay [3] it was 0.4 µM; in assay [4], 3.8 µM; in assay [5] it was above 100 µM; in assay [6], 4.6 µM.
As to `COc1cc(F)cc(-c2cc(C)cc3nc(OC(F)F)cnc23)c1` [Example 21, 2-(difluoromethoxy)-5-(3-fluoro-5-methoxyphenyl)-7-methylquinoxaline], the IC50 in assay [1] was above 100 µM; in assay [2], 13.3 µM; in assay [3], 2.2 µM; in assay [4], 11.7 µM; in assay [5] it was above 100 µM; in assay [6] it was 14.7 µM.
In the case of `Cc1cc(-c2cccc(Cl)c2)c2ncc(OC(F)F)nc2c1` [Example 18, 5-(3-chlorophenyl)-2-(difluoromethoxy)-7-methylquinoxaline], the IC50 in assay [1] is above 100 µM; in assay [2] it was 13.9 µM; in assay [3], 1.4 µM; in assay [4], 11.6 µM; in assay [5] it was above 100 µM; in assay [6], 13.2 µM.
On to `Cc1cc(-c2ccc(OC(F)(F)F)cc2)c2ncc(OC(F)F)nc2c1` [Example 20, 2-(difluoromethoxy)-7-methyl-5-(4-(trifluoromethoxy)phenyl)quinoxaline], for which the IC50 in assay [1] is above 100 µM; in assay [2], 16.4 µM; in assay [3], 1.2 µM; in assay [4], 22.1 µM; in assay [5], 83.5 µM; in assay [6] it was 45.1 µM.

The record behind these values is patent US10517870B2, “Aryl substituted bicycle heteroaryl compounds” (Bristol-Myers Squibb Company, priority 2015, dated 2019).
